Laboratory results published in patent US10266544B2, “Aryl substituted aminomethyl spectinomycin analogs as antibacterial agents” (ST. JUDE CHILDREN'S RESEARCH HOSPITAL, INC., priority 2013, dated 2019).

Experiments:
[1] = tested on: S. pneumoniae; experiment: Resistance frequency determination and cross resistance of spontaneous mutants; assay type: cell-based, Streptococcus pneumoniae; details: cross resistance testing of 2 mutants
[2] = tested on: S. pneumoniae D39x; experiment: Mouse challenge, mouse model of lung infection; assay type: in vivo; details: 72 hours post challenge
Protocol: Mice were treated with a 5 mg/kg dose b.i.d. of spectinomycin (indicated as “SPC” in the figure) or compound 2 (the compound number refers to the compound number and associated structure shown in Table 1), or vehicle. (Panel B) The bacterial burden of mice at 18 hours post-challenge with S. pneumoniae D39x. (Panel C) Representative bioluminescent images of mice at 72 hours post challenge.
All experimental animal protocols were approved by the St. Jude Children's Research Hospital Institutional Animal Care and Use Committee. Seven week old, female BalbC/J mice (Jackson Labs, Bar Harbor, Me.) we utilized in these studies. All mice were maintained in BSL2 facilities and all experiments were done under inhaled isoflurane (2.5%). Bacteria (strain D39x) were introduced by intranasal administration of 2×10^7 CFU in 25 μL PBS. Mice received no treatment, plasmalyte A (vehicle control), ampicillin (100 mg/kg), spectinomycin (50, 25, 5 mg/kg) or the respective compounds (50, 25, 5 mg/kg) at dosages indicated. Antibiotics were administered in a volume of 100 μL by subcutaneous […] starting at 18 hours post challenge, a time point when the mice have developed pneumonia and bacteria have translocated into the bloodstream. Mice were subsequently dosed every 12 hours until 96 hours post challenge. Mice were monitored daily for signs of infection and weight loss. Differences in time to death were compared via Kaplan-Meier survival estimates. Bacterial density in blood was quantified at 24, 48, 72, and 96 hours post infection via blood collection, serial dilution, and plating. Groups were then compared by Mann-Whitney to determine statistical significance. At 8 days following challenge, surviving mice were euthanized and bacterial loads in lungs determined by homogenization followed by serial dilution and plating. In all instances, surviving mice had completely cleared bacteria from both the lungs and the bloodstream by this time point.
Compound 2 was tested for anti-pneumococcal activity in mice as described above. […]

| SMILES | susceptibility of mutants resistant to 2 [1] | bioluminescent images of mice [2] |
| --- | --- | --- |
| CC[C@H]1OC(=O)[C@H](C)[C@@H](O[C@H]2C[C@@](C)(OC)[C@@H](O)[C@H](C)O2)[C@H](C)[C@@H](O[C@@H]2O[C@H](C)C[C@H](N(C)C)[C@H]2O)[C@](C)(O)C[C@@H](C)C(=O)[C@H](C)[C@@H](O)[C@]1(C)O [erythromycin] | susceptible | – |
| CC(=O)NC[C@H]1CN(c2ccc(N3CCOCC3)c(F)c2)C(=O)O1 [linezolid] | susceptible | – |
| C[C@@H](O)[C@H]1C(=O)N2C(C(=O)O)=C(S[C@@H]3CN[C@H](C(=O)N(C)C)C3)[C@H](C)[C@H]12 [meropenem] | susceptible | – |
| CN[C@@H]1[C@H](O)[C@H](NC)[C@H]2O[C@@]3(O)C(=O)C[C@@H](C)O[C@H]3O[C@@H]2[C@H]1O [spectinomycin] | cross resistance | systemic bacterial infection |
| CN[C@H](CC(C)C)C(=O)N[C@H]1C(=O)N[C@@H](CC(N)=O)C(=O)N[C@H]2C(=O)N[C@H]3C(=O)N[C@H](C(=O)N[C@H](C(=O)O)c4cc(O)cc(O)c4-c4cc3ccc4O)[C@H](O)c3ccc(c(Cl)c3)Oc3cc2cc(c3O[C@@H]2O[C@H](CO)[C@@H](O)[C@H](O)[C@H]2O[C@H]2C[C@](C)(N)[C@H](O)[C@H](C)O2)Oc2ccc(cc2Cl)[C@H]1O [vancomycin] | susceptible | – |
